Test results reported in article PMC3989234, “Introduction of Aromatic Ring-Containing Substituents in Cyclic Nucleotides Is Associated with Inhibition of Toxin Uptake by the Hepatocyte Transporters OATP 1B1 and 1B3” (PLoS ONE, 2014).
Where two headings read alike, the source gives them in different places.

Key:
OATP1B1 [1] = target: T1, OATP1B1 (Homo sapiens, UniProt Q9Y6L6)
T1 sequence (Q9Y6L6 1-691): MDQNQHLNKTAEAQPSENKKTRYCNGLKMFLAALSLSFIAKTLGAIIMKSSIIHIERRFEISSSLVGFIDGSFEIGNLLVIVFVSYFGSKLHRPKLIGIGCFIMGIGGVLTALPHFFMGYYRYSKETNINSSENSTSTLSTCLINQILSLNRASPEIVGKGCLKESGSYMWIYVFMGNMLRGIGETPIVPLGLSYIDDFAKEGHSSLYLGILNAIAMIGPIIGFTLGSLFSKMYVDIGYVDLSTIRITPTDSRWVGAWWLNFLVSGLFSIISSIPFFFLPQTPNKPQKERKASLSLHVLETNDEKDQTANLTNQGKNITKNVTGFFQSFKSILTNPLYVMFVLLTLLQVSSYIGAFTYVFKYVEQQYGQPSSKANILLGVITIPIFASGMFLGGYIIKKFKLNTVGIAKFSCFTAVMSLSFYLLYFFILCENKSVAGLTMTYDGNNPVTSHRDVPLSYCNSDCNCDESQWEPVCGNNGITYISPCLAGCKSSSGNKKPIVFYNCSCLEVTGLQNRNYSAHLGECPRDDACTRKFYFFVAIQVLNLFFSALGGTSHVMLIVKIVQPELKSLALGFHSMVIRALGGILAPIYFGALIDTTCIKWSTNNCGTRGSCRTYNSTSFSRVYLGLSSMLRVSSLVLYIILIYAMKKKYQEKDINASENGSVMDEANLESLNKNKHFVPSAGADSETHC

OATP1B3 [2] = target: T2, OATP1B3 (Homo sapiens, UniProt Q9NPD5)
T2 sequence (Q9NPD5 whole entry): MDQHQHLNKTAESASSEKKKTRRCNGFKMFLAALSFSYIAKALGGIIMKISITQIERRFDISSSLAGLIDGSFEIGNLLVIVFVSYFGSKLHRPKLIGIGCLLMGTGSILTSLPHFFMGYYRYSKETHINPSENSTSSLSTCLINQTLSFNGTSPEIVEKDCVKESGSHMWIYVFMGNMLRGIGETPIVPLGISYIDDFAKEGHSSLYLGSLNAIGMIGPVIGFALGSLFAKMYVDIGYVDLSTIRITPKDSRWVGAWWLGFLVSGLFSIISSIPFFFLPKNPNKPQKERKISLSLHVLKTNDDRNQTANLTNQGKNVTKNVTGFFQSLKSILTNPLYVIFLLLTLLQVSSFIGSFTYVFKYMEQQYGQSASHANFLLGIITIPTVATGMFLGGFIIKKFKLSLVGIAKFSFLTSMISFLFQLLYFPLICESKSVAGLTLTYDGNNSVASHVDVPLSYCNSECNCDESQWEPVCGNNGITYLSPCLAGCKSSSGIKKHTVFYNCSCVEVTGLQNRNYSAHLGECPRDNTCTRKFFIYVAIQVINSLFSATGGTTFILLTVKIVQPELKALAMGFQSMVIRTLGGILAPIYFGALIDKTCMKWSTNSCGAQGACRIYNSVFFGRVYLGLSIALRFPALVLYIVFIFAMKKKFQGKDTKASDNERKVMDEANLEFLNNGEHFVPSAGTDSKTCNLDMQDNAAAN

primary rat hepatocytes [3] = tested on: primary rat hepatocytes
primary rat hepatocytes [4] = tested on: primary rat hepatocytes; remark: listed apart in the source
primary rat hepatocytes [5] = conditions: 50 µM
OATP1B3 [6] = target: T2, OATP1B3; conditions: read-out: Ki for inhibition of sodium fluorescein accumulation, OATP1B3; competitive; inhibitor 10 min before, 3 min co-incubation; ± s.e. of the estimate; R2 0.91
Protocol: (§1) Estimation of sodium fluorescein accumulation in OATP1B1/1B3 transfected cells was as described by [33], except that the cells were seeded in 24-well tissue culture plates at a density of 200 000 cells/well. Inhibitors were added 10 min prior to addition of sodium fluorescein, and the cells were then co-incubated with inhibitor and substrate for three min before removal of medium and washing.
(§2) The data for uptake of fluorescein into HEK293T cells transfected with OATP1B1 or OATP1B3 in the absence or presence of inhibitor were fitted in SigmaPlot, using Michaelis Menten kinetics with competitive inhibition. Vmax and Km values obtained in absence of inhibitor were used to fit the Ki value for uptake in the presence of inhibitor.

OATP1B1 [7] = target: T1, OATP1B1; test: Sodium fluorescein accumulation in OATP1B1-transfected HEK293T cells; conditions: read-out: Ki for inhibition of sodium fluorescein accumulation, OATP1B1; competitive; inhibitor 10 min before, 3 min co-incubation; ± s.e. of the estimate; R2 0.79
Protocol: as §1, §2

OATP1B3 [8] = target: T2, OATP1B3; test: in vitro
Protocol: as §1, §2

OATP1B1 [9] = target: T1, OATP1B1; conditions: cited from earlier work
OATP1B3 [10] = target: T2, OATP1B3; conditions: cited from earlier work
[11] = substrate: O=C1OC2(c3ccc(O)cc3Oc3cc(O)ccc32)c2ccccc21; test: cells, lysate or membranes; conditions: other: ± s.e. of the estimate
Protocol: as §1, §2

## CO[C@H]1C2OP(O)(=S)OC[C@H]2O[C@H]1n1c(Sc2ccc(Cl)cc2)nc2c(N)ncnc21 (single isomer, unassigned) [Sp-8-pCPT-2′-O-Me-cAMPS, 8-(4-Chlorophenylthio)-2′-O-methyladenosine-3′, 5′-cyclic monophosphorothioate, Sp- isomer]
OATP1B1 [1]
  IC50: 19.9 µM
  Ki: 6.63 µM
OATP1B3 [2]
  IC50: 8.7 µM
  Ki: 2.33 µM
Primary rat hepatocytes [3]
  Effect on Nod-induced hepatocyte apoptosis (Fig. 2A): clear inhibition
Primary rat hepatocytes [4]
  Effect on [3H]-Nod accumulation in hepatocytes: almost completely inhibited
Primary rat hepatocytes [5]
  Effect on [14C]-glycocholic acid accumulation in hepatocytes: almost completely inhibited

## CO[C@@H]1[C@@H]2OP(=O)(O)OC[C@H]2O[C@H]1n1c(Sc2ccc(Cl)cc2)nc2c(N)ncnc21 [8-pCPT-2′-O-Me-cAMP, 8-(4-Chlorophenylthio)-2′-O-methyladenosine-3′, 5′-cyclic monophosphate]
OATP1B1 [1]
  Effect on Nod-induced apoptosis / Nod transport, OATP1B1-transfected HEK293T cells: abolished
  IC50: 46.4 µM
  Ki: 15.5 µM
OATP1B3 [2]
  Effect on Nod-induced apoptosis / Nod transport, OATP1B3-transfected HEK293T cells: abolished
  IC50: 12.6 µM
  Ki: 3.38 µM
OATP1B3 [6]
  Ki: 75 ± 22 µM
Primary rat hepatocytes [3]
  Effect on Nod-induced hepatocyte apoptosis (Fig. 1A): inhibited completely apoptotic morphology
  Effect on Nod-induced hepatocyte apoptosis (Fig. 2A): clear inhibition
Primary rat hepatocytes [4]
  Effect on [3H]-Nod accumulation in hepatocytes: almost completely inhibited
Primary rat hepatocytes [5]
  Effect on [14C]-glycocholic acid accumulation in hepatocytes: almost completely inhibited
OATP1B1 [7]
  Ki: 46 ± 21 µM

## O=C1OC2(c3ccc(O)cc3Oc3cc(O)ccc32)c2ccccc21 [fluorescein, sodium fluorescein]
OATP1B3 [8]
  Km: 285 ± 134 µM

## Nostocyclopeptide-M1
OATP1B1 [9]
  Potency as OATP1B1 inhibitor compared with the cAMP analogs: more potent inhibitor
OATP1B3 [10]
  Potency as OATP1B3 inhibitor compared with the cAMP analogs: more potent inhibitor

B1: OATP1B1 (Homo sapiens) (protein)
chain: MDQNQHLNKTAEAQPSENKKTRYCNGLKMFLAALSLSFIAKTLGAIIMKSSIIHIERRFEISSSLVGFIDGSFEIGNLLVIVFVSYFGSKLHRPKLIGIGCFIMGIGGVLTALPHFFMGYYRYSKETNINSSENSTSTLSTCLINQILSLNRASPEIVGKGCLKESGSYMWIYVFMGNMLRGIGETPIVPLGLSYIDDFAKEGHSSLYLGILNAIAMIGPIIGFTLGSLFSKMYVDIGYVDLSTIRITPTDSRWVGAWWLNFLVSGLFSIISSIPFFFLPQTPNKPQKERKASLSLHVLETNDEKDQTANLTNQGKNITKNVTGFFQSFKSILTNPLYVMFVLLTLLQVSSYIGAFTYVFKYVEQQYGQPSSKANILLGVITIPIFASGMFLGGYIIKKFKLNTVGIAKFSCFTAVMSLSFYLLYFFILCENKSVAGLTMTYDGNNPVTSHRDVPLSYCNSDCNCDESQWEPVCGNNGITYISPCLAGCKSSSGNKKPIVFYNCSCLEVTGLQNRNYSAHLGECPRDDACTRKFYFFVAIQVLNLFFSALGGTSHVMLIVKIVQPELKSLALGFHSMVIRALGGILAPIYFGALIDTTCIKWSTNNCGTRGSCRTYNSTSFSRVYLGLSSMLRVSSLVLYIILIYAMKKKYQEKDINASENGSVMDEANLESLNKNKHFVPSAGADSETHC
[11]
  Km: 402 ± 140 µM
